Results taken from patent publication US8901118B2, “Compounds and methods for kinase modulation, and indications therefor” (Plexxikon Inc., priority 2010, dated 2014).

What was measured:
[1] = test system: BCR-FMS BaF3 cells; assay: Splenomegaly mouse model, BCR-FMS BaF3 cells; format: in vivo; conditions: dosed once per day at 10 mg per kg
Method: BaF3 cells are engineered with any of BCR-FMS, BCR-TRK1 or BCR-TRK2 to assess in vivo inhibitory effects of Fms, TrkA or TrkB inhibition, respectively. BaF3 cells are maintained in growth media (RPMI containing 10% FBS, 1% PenStrep, 1% NEAA, and 1% L-Glutamine, supplemented with 5% murine IL-3 and 1 mg/mL G418). Four days prior to start, 2×10^6 cells are inoculated into a T150 vented flask using the growth media and incubated at 37° C. in 5% CO2 for three days. One day prior to start, cells are collected by centrifugation and are suspended in growth media without IL-3. On the day of cell implant, the cells are collected by centrifugation, rinsed 3×20 mL with RPMI, then are suspended in 5.4 mL of media and counted, then adjusted with additional RPMI as needed to give 5×10^7 cells/mL. On day 1, female nu/nu mice at 5-6 weeks of age are injected intravenously with BaF3 cells injected injecting 0.1 mL (5×10^6) cells in the tail vein (mice without cell injected are included as control group). Compound stocks in dimethylsulfoxide are stored at room temperature protected from light. Stocks are diluted prior to dosing, diluting 22 μL of compound stock into 858 μL of diluent (or 50 μL into 1950 μL) to provide vehicle of 1.0% Polysorbate 80, 0.5% hydroxypropyl methyl cellulose, with final dimethylsulfoxide at 2.5% in all dosing suspensions and vehicle control. Dosing suspension is prepared prior to use, mixing by inversion and sonication in a water bath to make a uniform suspension. On days 10-18, mice are treated with vehicle only or the desired level of compound in vehicle, ˜0.2 mL per 25 gm mouse, once a day by oral gavage, or in some instances, twice per day. On day 18, mice are administered a final dose and two hours later a plasma sample is taken. At four hours following the final dose, mice are sacrificed, an additional plasma sample is collected and mouse spleens are removed and weighed. The average spleen weight of vehicle control group mice is compared to the average spleen weight of the test compound mice. Percent spleen growth inhibition is calculated as 100×[(spleen weight vehicle control-spleen weight test compound)/spleen weight vehicle control]. In some instances, the compounds were not tested in all of the assays as indicated by NA in the table below.

[2] = target: TrkC kinase (Homo sapiens, UniProt Q16288); assay: TrkC kinase biochemical activity assay (similar to TrkA assay); conditions: read-out: Biochemical Inhibition IC50 TrkC
TrkC kinase, sequence (Q16288 32-839): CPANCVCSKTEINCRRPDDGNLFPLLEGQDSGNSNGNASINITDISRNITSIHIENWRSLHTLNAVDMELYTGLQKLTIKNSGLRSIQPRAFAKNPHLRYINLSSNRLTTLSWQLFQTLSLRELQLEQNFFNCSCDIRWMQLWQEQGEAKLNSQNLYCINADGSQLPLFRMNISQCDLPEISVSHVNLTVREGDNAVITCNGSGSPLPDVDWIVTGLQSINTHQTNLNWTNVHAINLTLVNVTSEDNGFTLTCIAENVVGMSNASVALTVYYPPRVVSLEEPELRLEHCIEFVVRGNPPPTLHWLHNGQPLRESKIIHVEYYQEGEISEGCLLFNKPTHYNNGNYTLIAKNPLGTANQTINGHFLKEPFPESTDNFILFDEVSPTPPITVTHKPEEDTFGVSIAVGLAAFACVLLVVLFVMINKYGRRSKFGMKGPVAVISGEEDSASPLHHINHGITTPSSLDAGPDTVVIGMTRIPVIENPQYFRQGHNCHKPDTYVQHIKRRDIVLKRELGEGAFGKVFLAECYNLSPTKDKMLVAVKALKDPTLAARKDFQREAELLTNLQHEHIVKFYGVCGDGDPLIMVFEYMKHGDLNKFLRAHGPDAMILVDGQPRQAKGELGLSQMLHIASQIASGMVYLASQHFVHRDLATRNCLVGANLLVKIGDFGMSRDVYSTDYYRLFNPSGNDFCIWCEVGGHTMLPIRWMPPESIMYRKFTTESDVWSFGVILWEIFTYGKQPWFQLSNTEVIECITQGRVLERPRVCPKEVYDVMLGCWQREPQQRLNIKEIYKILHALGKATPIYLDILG
Method: In one assay the biochemical activity IC50 values are determined with respect to inhibition of TrkA kinase activity, where inhibition of phosphorylation of a peptide substrate is measured as a function of compound concentration. Compounds to be tested, dissolved in DMSO (1 μL), are added to a white 384-well plate (Costar #3705). Working stocks of TrkA kinase (UBI), biotin-(E4Y)10 substrate (Upstate Biotech, Cat#12-440), and ATP (Sigma, Cat#A-3377) are prepared in 25 mM Hepes pH 7.5, 10 mM MnCl2, 1 mM DTT, 0.01% BSA, and 0.01% Tween-20. All components are added to the 384-well plate for a final concentration of 1 ng/well TrkA, 30 nM biotin-(E4Y)10 and 100 μM ATP in a volume of 20 μL. Each sample is at 5% DMSO. The plate is shaken for 1 minute at 1200 rpm, spun for 1 minute at 1000 rpm, then incubated for 40 minutes at room temperature. Just before use, working stocks of donor and acceptor beads from the AlphaScreen PY20 Detection Kit (PerkinElmer, Cat#676601M) are prepared in 25 mM Hepes pH 7.5, 100 mM EDTA. 0.01% BSA. Donor Beads solution (Streptavidin beads) is added (5 μL) to each well to final bead concentration of 10 μg/mL. The plate is incubated at room temperature for 20 minutes. Acceptor Beads solution (PY20 coated beads) are then added to each well (5 μL) to a final concentration of bead at 10 μg/mL. The plates are incubated at room temperature for 60 minutes. Fluorescence signal is recorded on the Envision reader. Phosphorylated substrate results in binding of the PY20 antibody and association of the donor and acceptor beads such that signal correlates with kinase activity. The signal vs. compound concentration is used to determine the IC50. Similar assays are used for TrkB and Trk C kinase.

| SMILES | IC50 [2] [µM] | % spleen growth inhibition, Fms [1] [%] |
| --- | --- | --- |
| FC1(F)CCC(Nc2ncc(Cc3c[nH]c4ncc(Cl)cc34)cn2)CC1 [Compound P-3004] |  | 43 |
| Cc1cnc2[nH]cc(Cc3cnc(Nc4cc(C5CC5)n[nH]4)nc3)c2c1 [Compound P-3032, (5-Cyclopropyl-2H-pyrazol-3-yl)-[5-(5-methyl-1H-pyrrolo[2,3-b]pyridin-3-ylmethyl)-pyrimidin-2-yl]-amine] | > 1 |  |
| CCOc1ccc(Nc2ccc(C(=O)c3c[nH]c4ncc(C)cc34)c(F)n2)cn1 [Compound P-3045, [6-(6-ethoxy-pyridin-3-ylamino)-2-fluoro-pyridin-3-yl]-(5-methyl-1H-pyrrolo[2,3-b]pyridin-3-yl)-methanone] |  | 11 |
| COc1ccc(Nc2ccc(Cc3c[nH]c4ncnc(OC)c34)c(F)n2)cn1 [Compound P-4001, [6-Fluoro-5-(4-methoxy-7H-pyrrolo[2,3-d]pyrimidin-5-ylmethyl)-pyridin-2-yl]-(6-methoxy-pyridin-3-yl)-amine] | < 0.01 |  |
| COc1ccc(Nc2ccc(Cc3c[nH]c4ncnc(C)c34)c(F)n2)cn1 [Compound P-4002, [6-Fluoro-5-(4-methyl-7H-pyrrolo[2,3-d]pyrimidin-5-ylmethyl)-pyridin-2-yl]-(6-methoxy-pyridin-3-yl)-amine] | < 1 |  |
| CCOc1ncnc2[nH]cc(Cc3ccc(Nc4cnn(CC)c4)nc3F)c12 [Compound P-4012, [5-(4-Ethoxy-7H-pyrrolo[2,3-d]pyrimidin-5-ylmethyl)-6-fluoro-pyridin-2-yl]-(1-ethyl-1H-pyrazol-4-yl)-amine] |  | 24 |
| CCOc1ccc(Nc2ccc(Cc3c[nH]c4ncnc(C5CC5)c34)c(F)n2)cn1 [Compound P-4026, [5-(4-Cyclopropyl-7H-pyrrolo[2,3-d]pyrimidin-5-ylmethyl)-6-fluoro-pyridin-2-yl]-(6-ethoxy-pyridin-3-yl)-amine] |  | 41 |
| CCOc1ccc(Nc2ccc(C(=O)c3c[nH]c4ncnc(C5CC5)c34)c(F)n2)cn1 [Compound P-4027, (4-Cyclopropyl-7H-pyrrolo[2,3-d]pyrimidin-5-yl)-[6-(6-ethoxy-pyridin-3-ylamino)-2-fluoro-pyridin-3-yl]-methanone] |  | −1.4 |
| CCc1ccc(Nc2ccc(C(=O)c3c[nH]c4ncnc(C5CC5)c34)c(F)n2)cn1 [Compound P-4029, (4-Cyclopropyl-7H-pyrrolo[2,3-d]pyrimidin-5-yl)-[6-(6-ethyl-pyridin-3-ylamino)-2-fluoro-pyridin-3-yl]-methanone] |  | 66 |
| Cc1ccc(Nc2ccc(C(=O)c3c[nH]c4ncnc(C5CC5)c34)c(F)n2)cn1 [Compound P-4031, (4-Cyclopropyl-7H-pyrrolo[2,3-d]pyrimidin-5-yl)-[2-fluoro-6-(6-methyl-pyridin-3-ylamino)-pyridin-3-yl]-methanone] |  | 29 |
| Fc1nc(NC2CCC(F)(F)CC2)ccc1Cc1c[nH]c2ncnc(NCC(F)(F)F)c12 [Compound P-4128, 5-[[6-[(4,4-difluorocyclohexyl)amino]-2-fluoro-3-pyridyl]methyl]-N-(2,2,2-trifluoroethyl)-7H-pyrrolo[2,3-d]pyrimidin-4-amine] |  | 15 |
| Fc1nc(Nc2ccc(C3CC3)nc2)ccc1Cc1c[nH]c2ncnc(NCC(F)(F)F)c12 [Compound P-4130, 5-[[6-[(6-cyclopropyl-3-pyridyl)amino]-2-fluoro-3-pyridyl]methyl]-N-(2,2,2-trifluoroethyl)-7H-pyrrolo[2,3-d]pyrimidin-4-amine] |  | 70 |

More lines, main results first:

| IC50 [2] [µM] | SMILES | % spleen growth inhibition, Fms [1] [%] |
| --- | --- | --- |
| < 1 | COc1ccc(Nc2ncc(Cc3c[nH]c4ncc(C)cc34)cn2)cn1 [Compound P-3020, (6-Methoxy-pyridin-3-yl)-[5-(5-methyl-1H-pyrrolo[2,3-b]pyridin-3-ylmethyl)-pyrimidin-2-yl]-amine] |  |
| < 1 | COc1ccc(Nc2ncc(Cc3c[nH]c4ncc(C)cc34)cn2)cc1 [Compound P-3021, (4-Methoxy-phenyl)-[5-(5-methyl-1H-pyrrolo[2,3-b]pyridin-3-ylmethyl)-pyrimidin-2-yl]-amine] |  |
| < 1 | COc1cc(Nc2ncc(Cc3c[nH]c4ncc(C)cc34)cn2)ccc1F [Compound P-3022, (4-Fluoro-3-methoxy-phenyl)-[5-(5-methyl-1H-pyrrolo[2,3-b]pyridin-3-ylmethyl)-pyrimidin-2-yl]-amine] |  |
| > 1 | CCCOc1ccc(Nc2ncc(Cc3c[nH]c4ncc(C)cc34)cn2)cc1 [Compound P-3024, [5-(5-Methyl-1H-pyrrolo[2,3-b]pyridin-3-ylmethyl)-pyrimidin-2-yl]-(4-propoxy-phenyl)-amine] |  |
| < 0.01 | CCc1ccc(Nc2ncc(Cc3c[nH]c4ncc(C)cc34)cn2)cc1 [Compound P-3025, (4-Ethyl-phenyl)-[5-(5-methyl-1H-pyrrolo[2,3-b]pyridin-3-ylmethyl)-pyrimidin-2-yl]-amine] |  |
| < 0.1 | CCOc1ccc(Nc2ncc(Cc3c[nH]c4ncc(C)cc34)cn2)cc1 [Compound P-3026, (4-Ethoxy-phenyl)-[5-(5-methyl-1H-pyrrolo[2,3-b]pyridin-3-ylmethyl)-pyrimidin-2-yl]-amine] |  |
| < 0.1 | Cc1cnc2[nH]cc(Cc3cnc(Nc4cc(-c5ccc(F)cc5)n[nH]4)nc3)c2c1 [Compound P-3028, [5-(4-Fluoro-phenyl)-2H-pyrazol-3-yl]-[5-(5-methyl-1H-pyrrolo[2,3-b]pyridin-3-ylmethyl)-pyrimidin-2-yl]-amine] |  |
| < 1 | Cc1cnc2[nH]cc(Cc3cnc(Nc4cc(C(C)(C)C)n[nH]4)nc3)c2c1 [Compound P-3029, (5-tert-Butyl-2H-pyrazol-3-yl)-[5-(5-methyl-1H-pyrrolo[2,3-b]pyridin-3-ylmethyl)-pyrimidin-2-yl]-amine] |  |
| < 0.01 | Cc1cnc2[nH]cc(Cc3cnc(Nc4ccc(C(C)(C)C)cc4)nc3)c2c1 [Compound P-3030, (4-tert-Butyl-phenyl)-[5-(5-methyl-1H-pyrrolo[2,3-b]pyridin-3-ylmethyl)-pyrimidin-2-yl]-amine amine] |  |
| < 0.1 | Cc1cnc2[nH]cc(Cc3cnc(Nc4ccc(C(O)(C(F)(F)F)C(F)(F)F)cc4)nc3)c2c1 [Compound P-3031, 1,1,1,3,3,3-Hexafluoro-2-{4-[5-(5-methyl-1H-pyrrolo[2,3-b]pyridin-3-ylmethyl)-pyrimidin-2-ylamino]-phenyl}-propan-2-ol] |  |
| < 0.1 | CSc1ccc(Nc2ncc(Cc3c[nH]c4ncc(C)cc34)cn2)cc1 [Compound P-3033, [5-(5-Methyl-1H-pyrrolo[2,3-b]pyridin-3-ylmethyl)-pyrimidin-2-yl]-(4-methylsulfanyl-phenyl)-amine] |  |
| < 1 | Cc1cnc2[nH]cc(Cc3cnc(Nc4ccc(S(C)(=O)=O)cc4)nc3)c2c1 [Compound P-3034, (4-Methanesulfonyl-phenyl)-[5-(5-methyl-1H-pyrrolo[2,3-b]pyridin-3-ylmethyl)-pyrimidin-2-yl]-amine] |  |
| < 1 | CCn1ccc(Nc2ncc(Cc3c[nH]c4ncc(C)cc34)cn2)n1 [Compound P-3035, (1-Ethyl-1H-pyrazol-3-yl)-[5-(5-methyl-1H-pyrrolo[2,3-b]pyridin-3-ylmethyl)-pyrimidin-2-yl]-amine] |  |
| < 1 | CCn1cc(Nc2ncc(Cc3c[nH]c4ncc(C)cc34)cn2)cn1 [Compound P-3036, (1-Ethyl-1H-pyrazol-4-yl)-[5-(5-methyl-1H-pyrrolo[2,3-b]pyridin-3-ylmethyl)-pyrimidin-2-yl]-amine] |  |
